Assay results from patent publication US9980943B2, “Methods of treating muscular dystrophy” (BOARD OF REGENTS OF THE NEVADA SYSTEM OF HIGHER EDUCATION, …, priority 2013, dated 2018).

Tests used:
Format in all cases: cell-based, mouse
[1] = tested on: α7 integrin (LacZ reporter in α7βgal+/− myoblasts); assay: Myoblast α7+/LacZ integrin FDG assay (Burkin assay in myoblasts, 96-well); settings: α7+/LacZ myoblasts, 96-well
[2] = tested on: β-galactosidase in CMV-LacZ C2C12 myoblasts; assay: CMV-LacZ secondary screen in C2C12 myoblasts (β-Gal stabilizing assay); settings: CMV-LacZ C2C12 myoblasts
In short: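 Dose-response runs at 0.5–40 μM (0.5, 1, 5, 10, 20, 40 μM; N=2 per point) used a clonal C2C12 line carrying CMV-LacZ. Cells were assayed as myoblasts or as differentiated myotubes, and β-galactosidase levels were read with the FDG fluorogenic substrate.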

[3] = tested on: α7 integrin (LacZ reporter in α7+/LacZ myotubes); assay: Myotube α7 integrin FDG assay (Burkin assay in myotubes, 96-well); settings: myotubes
[4] = tested on: β-galactosidase in CMV-LacZ C2C12 myotubes; assay: CMV-LacZ secondary screen in C2C12 myotubes (β-Gal stabilizing assay); settings: C2C12 CMV-LacZ myotubes, fold relative to DMSO
In short: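 CMV-LacZ C2C12 line (clonal, FDG-screened); myoblasts/myotubes dosed 0.5–40 μM (0.5, 1, 5, 10, 20, 40 μM); n=2 per point; β-gal stabilization read-out.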

**Q.** For NS(=O)(=O)c1ccc(NC(=O)CN2CCc3ccccc32)cc1 [MLS000850522-01], which “Burkin Assay in Myoblasts, signal relative to DMSO” value ([1]; 0.5 uM) is on record?
**A.** 0.7993

**Q.** What about the “Burkin Assay in Myoblasts, signal relative to DMSO” value ([1]; 1 uM) of the same molecule?
**A.** 0.9332

**Q.** What about the “Burkin Assay in Myoblasts, signal relative to DMSO” value ([1]; 5 uM) of the same molecule?
**A.** 1.307

**Q.** What about the “Burkin Assay in Myoblasts, signal relative to DMSO” value ([1]; 10 uM) of the same molecule?
**A.** 1.003

**Q.** What about the “Burkin Assay in Myoblasts, signal relative to DMSO” value ([1]; 20 uM) of the same molecule?
**A.** 0.8743

**Q.** And the “Burkin Assay in Myoblasts, signal relative to DMSO” value ([1]; 40 uM)?
**A.** 0.8805

**Q.** What about the “CMV-LACZ in Myoblasts (β-galactosidase activity relative to DMSO)” value ([2]; 0.5 uM) of the same molecule?
**A.** 0.8880

**Q.** What about the “CMV-LACZ in Myoblasts (β-galactosidase activity relative to DMSO)” value ([2]; 1 uM) of the same molecule?
**A.** 1.3763

**Q.** What about the “CMV-LACZ in Myoblasts (β-galactosidase activity relative to DMSO)” value ([2]; 5 uM) of the same molecule?
**A.** 0.8809

**Q.** What about the “CMV-LACZ in Myoblasts (β-galactosidase activity relative to DMSO)” value ([2]; 10 uM) of the same molecule?
**A.** 0.8671

**Q.** And the “CMV-LACZ in Myoblasts (β-galactosidase activity relative to DMSO)” value ([2]; 20 uM)?
**A.** 0.8358

**Q.** And the “CMV-LACZ in Myoblasts (β-galactosidase activity relative to DMSO)” value ([2]; 40 uM)?
**A.** 1.0091

**Q.** And the “Burkin Assay in Myotubes, α7 integrin LacZ reporter signal relative to DMSO” value ([3]; 0.5 uM)?
**A.** 0.9439

**Q.** What about the “Burkin Assay in Myotubes, α7 integrin LacZ reporter signal relative to DMSO” value ([3]; 1 uM) of the same molecule?
**A.** 0.9058

**Q.** And the “Burkin Assay in Myotubes, α7 integrin LacZ reporter signal relative to DMSO” value ([3]; 5 uM)?
**A.** 1.11

**Q.** What about the “Burkin Assay in Myotubes, α7 integrin LacZ reporter signal relative to DMSO” value ([3]; 10 uM) of the same molecule?
**A.** 0.9263

**Q.** And the “Burkin Assay in Myotubes, α7 integrin LacZ reporter signal relative to DMSO” value ([3]; 20 uM)?
**A.** 0.9416

**Q.** And the “Burkin Assay in Myotubes, α7 integrin LacZ reporter signal relative to DMSO” value ([3]; 40 uM)?
**A.** 0.9324

**Q.** What about the “CMV-LACZ in Myotubes, signal relative to DMSO” value ([4]; 0.5 uM) of the same molecule?
**A.** 0.8848

**Q.** And the “CMV-LACZ in Myotubes, signal relative to DMSO” value ([4]; 1 uM)?
**A.** 0.8933

**Q.** What about the “CMV-LACZ in Myotubes, signal relative to DMSO” value ([4]; 5 uM) of the same molecule?
**A.** 1.1090

**Q.** What about the “CMV-LACZ in Myotubes, signal relative to DMSO” value ([4]; 10 uM) of the same molecule?
**A.** 1.0751

**Q.** And the “CMV-LACZ in Myotubes, signal relative to DMSO” value ([4]; 20 uM)?
**A.** 1.0580

**Q.** What about the “CMV-LACZ in Myotubes, signal relative to DMSO” value ([4]; 40 uM) of the same molecule?
**A.** 1.0200

**Q.** How did the “Burkin Assay in Myoblasts, signal relative to DMSO” value ([1]; 0.5 uM) turn out when O=c1c2cc(-c3ccccc3)sc2nc2n1N=C(c1ccccc1)CS2 [MLS000858981-01] was run?
**A.** 0.953

**Q.** And the “Burkin Assay in Myoblasts, signal relative to DMSO” value ([1]; 1 uM)?
**A.** 0.999

**Q.** And the “Burkin Assay in Myoblasts, signal relative to DMSO” value ([1]; 5 uM)?
**A.** 1.186

**Q.** What about the “Burkin Assay in Myoblasts, signal relative to DMSO” value ([1]; 10 uM) of the same molecule?
**A.** 1.01

**Q.** And the “Burkin Assay in Myoblasts, signal relative to DMSO” value ([1]; 20 uM)?
**A.** 1.0113

**Q.** What about the “Burkin Assay in Myoblasts, signal relative to DMSO” value ([1]; 40 uM) of the same molecule?
**A.** 1.005

**Q.** And the “CMV-LACZ in Myoblasts (β-galactosidase activity relative to DMSO)” value ([2]; 0.5 uM)?
**A.** 0.9229

**Q.** And the “CMV-LACZ in Myoblasts (β-galactosidase activity relative to DMSO)” value ([2]; 1 uM)?
**A.** 0.9696

**Q.** What about the “CMV-LACZ in Myoblasts (β-galactosidase activity relative to DMSO)” value ([2]; 5 uM) of the same molecule?
**A.** 1.1687

**Q.** What about the “CMV-LACZ in Myoblasts (β-galactosidase activity relative to DMSO)” value ([2]; 10 uM) of the same molecule?
**A.** 0.9009

**Q.** And the “CMV-LACZ in Myoblasts (β-galactosidase activity relative to DMSO)” value ([2]; 20 uM)?
**A.** 0.9985

**Q.** What about the “CMV-LACZ in Myoblasts (β-galactosidase activity relative to DMSO)” value ([2]; 40 uM) of the same molecule?
**A.** 0.9696

**Q.** What about the “Burkin Assay in Myotubes, α7 integrin LacZ reporter signal relative to DMSO” value ([3]; 0.5 uM) of the same molecule?
**A.** 1.027

**Q.** And the “Burkin Assay in Myotubes, α7 integrin LacZ reporter signal relative to DMSO” value ([3]; 1 uM)?
**A.** 0.8837

**Q.** And the “Burkin Assay in Myotubes, α7 integrin LacZ reporter signal relative to DMSO” value ([3]; 5 uM)?
**A.** 1.055

**Q.** And the “Burkin Assay in Myotubes, α7 integrin LacZ reporter signal relative to DMSO” value ([3]; 10 uM)?
**A.** 0.8922

**Q.** What about the “Burkin Assay in Myotubes, α7 integrin LacZ reporter signal relative to DMSO” value ([3]; 20 uM) of the same molecule?
**A.** 0.8526

**Q.** And the “Burkin Assay in Myotubes, α7 integrin LacZ reporter signal relative to DMSO” value ([3]; 40 uM)?
**A.** 0.8173

**Q.** And the “CMV-LACZ in Myotubes, signal relative to DMSO” value ([4]; 0.5 uM)?
**A.** 1.0257

**Q.** What about the “CMV-LACZ in Myotubes, signal relative to DMSO” value ([4]; 1 uM) of the same molecule?
**A.** 0.8419

**Q.** And the “CMV-LACZ in Myotubes, signal relative to DMSO” value ([4]; 5 uM)?
**A.** 1.0786

**Q.** What about the “CMV-LACZ in Myotubes, signal relative to DMSO” value ([4]; 10 uM) of the same molecule?
**A.** 0.9781

**Q.** And the “CMV-LACZ in Myotubes, signal relative to DMSO” value ([4]; 20 uM)?
**A.** 1.0421

**Q.** And the “CMV-LACZ in Myotubes, signal relative to DMSO” value ([4]; 40 uM)?
**A.** 1.0000

**Q.** With O=C(NCc1ccccc1)c1csc(-c2cccnc2)n1 [MLS000860966-01] as the molecule, how does the “Burkin Assay in Myoblasts, signal relative to DMSO” value ([1]; 0.5 uM) read?
**A.** 0.8092

**Q.** What about the “Burkin Assay in Myoblasts, signal relative to DMSO” value ([1]; 1 uM) of the same molecule?
**A.** 0.9506

**Q.** And the “Burkin Assay in Myoblasts, signal relative to DMSO” value ([1]; 5 uM)?
**A.** 1.225

**Q.** And the “Burkin Assay in Myoblasts, signal relative to DMSO” value ([1]; 10 uM)?
**A.** 1.126

**Q.** What about the “Burkin Assay in Myoblasts, signal relative to DMSO” value ([1]; 20 uM) of the same molecule?
**A.** 1.242

**Q.** What about the “Burkin Assay in Myoblasts, signal relative to DMSO” value ([1]; 40 uM) of the same molecule?
**A.** 1.117

**Q.** What about the “CMV-LACZ in Myoblasts (β-galactosidase activity relative to DMSO)” value ([2]; 0.5 uM) of the same molecule?
**A.** 0.9370

**Q.** And the “CMV-LACZ in Myoblasts (β-galactosidase activity relative to DMSO)” value ([2]; 1 uM)?
**A.** 1.0900

**Q.** What about the “CMV-LACZ in Myoblasts (β-galactosidase activity relative to DMSO)” value ([2]; 5 uM) of the same molecule?
**A.** 0.7918

**Q.** What about the “CMV-LACZ in Myoblasts (β-galactosidase activity relative to DMSO)” value ([2]; 10 uM) of the same molecule?
**A.** 0.8424

**Q.** What about the “CMV-LACZ in Myoblasts (β-galactosidase activity relative to DMSO)” value ([2]; 20 uM) of the same molecule?
**A.** 0.6232

**Q.** And the “CMV-LACZ in Myoblasts (β-galactosidase activity relative to DMSO)” value ([2]; 40 uM)?
**A.** 0.7600

**Q.** What about the “Burkin Assay in Myotubes, α7 integrin LacZ reporter signal relative to DMSO” value ([3]; 0.5 uM) of the same molecule?
**A.** 0.9275

**Q.** What about the “Burkin Assay in Myotubes, α7 integrin LacZ reporter signal relative to DMSO” value ([3]; 1 uM) of the same molecule?
**A.** 0.8211

**Q.** What about the “Burkin Assay in Myotubes, α7 integrin LacZ reporter signal relative to DMSO” value ([3]; 5 uM) of the same molecule?
**A.** 1.1137

**Q.** And the “Burkin Assay in Myotubes, α7 integrin LacZ reporter signal relative to DMSO” value ([3]; 10 uM)?
**A.** 1.107

**Q.** And the “Burkin Assay in Myotubes, α7 integrin LacZ reporter signal relative to DMSO” value ([3]; 20 uM)?
**A.** 1.06

**Q.** What about the “Burkin Assay in Myotubes, α7 integrin LacZ reporter signal relative to DMSO” value ([3]; 40 uM) of the same molecule?
**A.** 0.8927

**Q.** And the “CMV-LACZ in Myotubes, signal relative to DMSO” value ([4]; 0.5 uM)?
**A.** 0.8229

**Q.** What about the “CMV-LACZ in Myotubes, signal relative to DMSO” value ([4]; 1 uM) of the same molecule?
**A.** 1.0743

**Q.** What about the “CMV-LACZ in Myotubes, signal relative to DMSO” value ([4]; 5 uM) of the same molecule?
**A.** 0.9632

**Q.** What about the “CMV-LACZ in Myotubes, signal relative to DMSO” value ([4]; 10 uM) of the same molecule?
**A.** 0.8601

**Q.** What about the “CMV-LACZ in Myotubes, signal relative to DMSO” value ([4]; 20 uM) of the same molecule?
**A.** 0.9190

**Q.** And the “CMV-LACZ in Myotubes, signal relative to DMSO” value ([4]; 40 uM)?
**A.** 0.7920
